This experiment deals with beige adipocytes. The experiment can be described thus: Lipolysis validation assays of primary hits at three concentrations. Format: cell-based, human. Set-up: % of Control (1) / % of Control (2) / % of Control (3) / % of Control (4): unit of the concentration uncertain. The note with it: for activity at 2.2 µM / activity at 6.7 µM / activity at 20 µM / activity at 2200 µM: Homo sapiens, Adipocyte, 24 h; for activity at 2.2 µM: Conc. 2.2 µM; for activity at 6.7 µM: Conc. 6.7 µM; for activity at 20 µM: Conc. 20 µM; for activity at 2200 µM: Conc. 2.2 mM. As for the experimental part: ADSCs were seeded at 5000 cell/cm^2 in 12-well plates, grown for 5 days and then induced to differentiate into GC for 20 days. Prior to the assay, cells were washed in DPBS twice and then incubated with DMEM with 2% fatty-acid free BSA (Santa Crus, sc-500949) and Triascin C (5 μM). Cells were treated with forskolin (20 μM) for indicated time periods and supernatant samples were collected. Lipolysis assay was performed with free glycerol reagent (Sigma, F6428-40ML), according to manufacturer instructions.
Lipolysis assays were performed after 24 hours of drug treatment by measuring free glycerol released in the 384-well format, using the procedure described above. Absorbance for each compound was normalized to untreated control samples for each plate and calculated as a percent of the control. Cut-offs for “activating” and “inhibiting” compounds were set at 2-fold. Validation assays were performed for select compounds at a range of concentration doses.
Next, lipolysis assays were performed for all 111 compounds identified in the primary screen at three different concentrations, of which twenty-four were selected for further analysis based on their newness and/or reproducibility.

The structures appear in SMILES notation. Where a name gives a salt, the structure may show the parent alone. Read-outs that look alike come from different tables or passages of the source.

In the case of `CNC[C@H](O)c1cccc(O)c1` [Phenylephrine HCl], where the note is “read-out: % of Control (2)”, the activity at 2.2 µM amounted to 253%, the activity at 6.7 µM stood at 266% and the activity at 20 µM is 373%. Moreover, under “read-out: % of Control (4)”, the activity at 2.2 µM was 240%, the activity at 6.7 µM was found to be 232% and the activity at 20 µM amounted to 232%. Also, under “read-out: % of Control (1)”, the activity at 6.7 µM is 271%, the activity at 20 µM was 353% and the activity at 2200 µM came out at 338%. Where the note is “read-out: % of Control (3)”, the activity at 6.7 µM was found to be 240%, the activity at 20 µM stood at 248% and the activity at 2200 µM is 221%.
With `CCC(NC(C)C)C(O)c1ccc(O)c(O)c1` (stereo not drawn) [Isoetharine Mesylate], for the setting “read-out: % of Control (2)”, the activity at 2.2 µM stood at 307%, the activity at 6.7 µM stood at 301% and the activity at 20 µM is 304%. For the setting “read-out: % of Control (4)”, the activity at 2.2 µM was determined as 106%, the activity at 6.7 µM was determined as 247% and the activity at 20 µM is 260%. In addition, for the setting “read-out: % of Control (1)”, the activity at 6.7 µM stood at 373%, the activity at 20 µM turned out to be 417% and the activity at 2200 µM was 294%. Moreover, where the note is “read-out: % of Control (3)”, the activity at 6.7 µM worked out at 339%, the activity at 20 µM came out at 204% and the activity at 2200 µM came out at 258%.
As for `C[C@@H]1CC(=O)NN=C1c1ccc(NN=C(C#N)C#N)cc1` [Levosimendan], under “read-out: % of Control (2)”, the activity at 2.2 µM amounted to 163%, the activity at 6.7 µM was 189% and the activity at 20 µM came to 280%. Further, under “read-out: % of Control (4)”, the activity at 2.2 µM came to 236%, the activity at 6.7 µM was found to be 246% and the activity at 20 µM came out at 340%. Besides, under “read-out: % of Control (1)”, the activity at 6.7 µM amounted to 197%, the activity at 20 µM came to 261% and the activity at 2200 µM is 215%. Besides, under “read-out: % of Control (3)”, the activity at 6.7 µM was 211%, the activity at 20 µM stood at 247% and the activity at 2200 µM amounted to 189%.
In the case of `O=C(Nc1c[nH]nc1-c1nc2ccc(CN3CCOCC3)cc2[nH]1)NC1CC1` [AT9283], under “read-out: % of Control (2)”, the activity at 2.2 µM was found to be 115%, the activity at 6.7 µM is 152% and the activity at 20 µM was 144%. In addition, where the note is “read-out: % of Control (4)”, the activity at 2.2 µM was 133%, the activity at 6.7 µM turned out to be 177% and the activity at 20 µM worked out at 159%. For the same compound, under “read-out: % of Control (1)”, the activity at 6.7 µM was determined as 151%, the activity at 20 µM is 132% and the activity at 2200 µM came to 163%. Where the note is “read-out: % of Control (3)”, the activity at 6.7 µM is 161%, the activity at 20 µM was 202% and the activity at 2200 µM came out at 142%.
For the compound `CCOC(=O)C1=C(C)NC(C)=C(C(=O)OC)C1c1cccc(Cl)c1Cl` (stereo not drawn) [Felodipine], where the note is “read-out: % of Control (2)”, the activity at 2.2 µM stood at 220%, the activity at 6.7 µM was 241% and the activity at 20 µM came out at 274%. Where the note is “read-out: % of Control (4)”, the activity at 2.2 µM stood at 206%, the activity at 6.7 µM is 256% and the activity at 20 µM is 245%. For the setting “read-out: % of Control (1)”, the activity at 6.7 µM amounted to 284%, the activity at 20 µM amounted to 291% and the activity at 2200 µM was determined as 243%. Under “read-out: % of Control (3)”, the activity at 6.7 µM is 228%, the activity at 20 µM is 244% and the activity at 2200 µM turned out to be 203%.
`C[n+]1cc2c3c(ccc2c2ccc4cc5c(cc4c21)OCO5)OCO3` [Sanguinarine]: where the note is “read-out: % of Control (2)”, the activity at 2.2 µM is 142%, the activity at 6.7 µM is 198% and the activity at 20 µM was found to be 155%. Further, under “read-out: % of Control (4)”, the activity at 2.2 µM was 121%, the activity at 6.7 µM was 101% and the activity at 20 µM amounted to 160%. For the setting “read-out: % of Control (1)”, the activity at 6.7 µM stood at 218%, the activity at 20 µM was determined as 185% and the activity at 2200 µM is 179%. In addition, under “read-out: % of Control (3)”, the activity at 6.7 µM came to 128%, the activity at 20 µM came to 133% and the activity at 2200 µM was 71.3%.
As for `CO[C@H]1CC[C@@H](O[C@H]2C[C@H]([C@]3(C)CC[C@]4(C[C@H](O)[C@@H](C)[C@@H]([C@@H](C)/C=C(\C)C(=O)[C@H](C)C[C@H](C)C(=O)O)O4)O3)O[C@]3(O[C@@H]([C@H]4O[C@@](O)(CO)[C@H](C)C[C@@H]4C)C[C@@H]3C)[C@@H]2C)O[C@@H]1C` [Nanchangmycin], for the setting “Conc. 2.2 (unit uncertain)”, the “% of Control (1)” value is recorded as 259.29 % of Control, the “% of Control (2)” value is 209.65 % of Control, the “% of Control (3)” value is given as 192.42 % of Control and the “% of Control (4)” value is recorded as 124.48 % of Control. Also, under “Conc. 6.7 (unit uncertain)”, the “% of Control (1)” value is given as 196.07 % of Control, the “% of Control (2)” value was 104.94 % of Control, the “% of Control (3)” value is recorded as 147.69 % of Control and the “% of Control (4)” value was 106.09 % of Control. Further, for the setting “Conc. 20 (unit uncertain)”, the “% of Control (1)” value was 147.14 % of Control, the “% of Control (2)” value is given as 168.94 % of Control, the “% of Control (3)” value is 98.9 % of Control and the “% of Control (4)” value is 168.85 % of Control.
Take `Cc1[nH]c(=O)c(C#N)cc1-c1ccncc1` [Milrinone]: where the note is “read-out: % of Control (2)”, the activity at 2.2 µM is 117%, the activity at 6.7 µM worked out at 154% and the activity at 20 µM came to 205%. Besides, where the note is “read-out: % of Control (4)”, the activity at 2.2 µM was 170%, the activity at 6.7 µM turned out to be 142% and the activity at 20 µM was 185%. Where the note is “read-out: % of Control (1)”, the activity at 6.7 µM was 236%, the activity at 20 µM amounted to 168% and the activity at 2200 µM was 99%. Where the note is “read-out: % of Control (3)”, the activity at 6.7 µM turned out to be 116%, the activity at 20 µM is 171% and the activity at 2200 µM was 126%.
For `CC(C)C[C@H](NC(=O)CNC(=O)c1cc(Cl)ccc1Cl)B1OC(=O)C(CC(=O)O)(CC(=O)O)O1` [MLN9708], the activity at 2.2 µM was determined as 139% (read-out: % of Control (2)) and 114% (read-out: % of Control (4)). The activity at 6.7 µM by setting is: (read-out: % of Control (1)) 198%; (read-out: % of Control (2)) 228%; (read-out: % of Control (3)) 176%; (read-out: % of Control (4)) 115%. The activity at 20 µM was 138% (read-out: % of Control (1)), 173% (read-out: % of Control (2)), 117% (read-out: % of Control (3)) and 90% (read-out: % of Control (4)). Moreover, the activity at 2200 µM by setting is: (read-out: % of Control (1)) 251%; (read-out: % of Control (3)) 205%.
For the compound `CC(C)NCC(O)c1cc(O)cc(O)c1` (stereo not drawn) [Metaproterenol Sulfate], where the note is “read-out: % of Control (2)”, the activity at 2.2 µM stood at 298%, the activity at 6.7 µM came to 412% and the activity at 20 µM amounted to 293%. Also, where the note is “read-out: % of Control (4)”, the activity at 2.2 µM turned out to be 305%, the activity at 6.7 µM amounted to 283% and the activity at 20 µM stood at 274%. Also, under “read-out: % of Control (1)”, the activity at 6.7 µM is 311%, the activity at 20 µM amounted to 305% and the activity at 2200 µM came out at 327%. Moreover, under “read-out: % of Control (3)”, the activity at 6.7 µM worked out at 293%, the activity at 20 µM was determined as 308% and the activity at 2200 µM was determined as 291%.
Turning to `CCc1cnn2c(NCc3ccc[n+]([O-])c3)cc(N3CCCC[C@H]3CCO)nc12` [Dinaciclib], the activity at 2.2 µM by setting is: (read-out: % of Control (2)) 232%; (read-out: % of Control (4)) 179%. For the same compound, the activity at 6.7 µM (read-out: % of Control (1)) is 180%, the activity at 6.7 µM (read-out: % of Control (2)) turned out to be 204%, the activity at 6.7 µM (read-out: % of Control (3)) is 149% and the activity at 6.7 µM (read-out: % of Control (4)) was 129%. The activity at 20 µM (read-out: % of Control (1)) was found to be 291%, the activity at 20 µM (read-out: % of Control (2)) is 246%, the activity at 20 µM (read-out: % of Control (3)) worked out at 60.7% and the activity at 20 µM (read-out: % of Control (4)) was 262%. In addition, the activity at 2200 µM is, setting by setting: (read-out: % of Control (1)) 175%; (read-out: % of Control (3)) 193%.
In the case of `CC(Oc1c(Cl)cccc1Cl)C1=NCCN1` (stereo not drawn) [Lofexidine HCl], where the note is “read-out: % of Control (2)”, the activity at 2.2 µM amounted to 115%, the activity at 6.7 µM turned out to be 176% and the activity at 20 µM came to 200%. Besides, for the setting “read-out: % of Control (4)”, the activity at 2.2 µM was found to be 91.4%, the activity at 6.7 µM is 149% and the activity at 20 µM came out at 191%. Also, under “read-out: % of Control (1)”, the activity at 6.7 µM turned out to be 122%, the activity at 20 µM came to 205% and the activity at 2200 µM was determined as 104%. Also, where the note is “read-out: % of Control (3)”, the activity at 6.7 µM worked out at 180%, the activity at 20 µM stood at 148% and the activity at 2200 µM was determined as 119%.
For the compound `CC(=O)Nc1ccccc1` [Acetanilide], where the note is “read-out: % of Control (2)”, the activity at 2.2 µM was 377%, the activity at 6.7 µM was 332% and the activity at 20 µM stood at 295%. Moreover, under “read-out: % of Control (4)”, the activity at 2.2 µM stood at 119%, the activity at 6.7 µM was found to be 249% and the activity at 20 µM was found to be 258%. In addition, where the note is “read-out: % of Control (1)”, the activity at 6.7 µM was found to be 252%, the activity at 20 µM is 298% and the activity at 2200 µM was 317%. Also, where the note is “read-out: % of Control (3)”, the activity at 6.7 µM amounted to 246%, the activity at 20 µM worked out at 253% and the activity at 2200 µM came to 251%.

The values above are taken from US20220079993A1, “NON-NATURALLY OCCURRING THERMOGENIC ADIPOCYTES, METHODS OF MAKING, AND METHODS OF USE THEREOF” (University of Georgia Research Foundation, Inc., priority 2019, published 2022).
